Test results from PubChem BioAssay AID274 (DTP/NCI, 2004).
Toxic doses and inconclusive results are not listed. The calls were made as follows: active = survival T/C of 150% or more; inactive = T/C below 125% in these data.

System: BDF1 mice, Lewis lung carcinoma iv, survival T/C
Assay: NCI In Vivo Anticancer Drug Screen. Data for tumor model Lewis Lung Carcinoma (intravenous) in B6D2F1 (BDF1) mice
Conditions: endpoint: median survival time, higher = longer survival
Protocol: The antitumor activity of compounds was measured in mice bearing transplantable tumors. Survival or tumor size were measured and the results are expressed as the measurement made in the treated group (T) divided by the measurement made in the vehicle treated control group (C). The tumor model used in this assay is Lewis Lung Carcinoma (intravenous) in B6D2F1 (BDF1) mice

[1] = dose: 50.0 mg/kg/injection, schedule: Q01DX009 (ip), vehicle: Klucel (hydroxypropylcellulose) (HPC)
[2] = dose: 100.0 mg/kg/injection, schedule: Q01DX009 (ip), vehicle: Klucel (hydroxypropylcellulose) (HPC)
[3] = dose: 50.0 mg/kg/injection, schedule: Q01DX009 (ip), vehicle: saline with Tween-80
[4] = dose: 100.0 mg/kg/injection, schedule: Q01DX009 (ip), vehicle: saline with Tween-80
[5] = dose: 200.0 mg/kg/injection, schedule: Q01DX009 (ip), vehicle: saline with Tween-80
[6] = dose: 12.5 mg/kg/injection, schedule: Q01DX009 (ip), vehicle: saline with Tween-80
[7] = dose: 25.0 mg/kg/injection, schedule: Q01DX009 (ip), vehicle: saline with Tween-80
[8] = dose: 3.12 mg/kg/injection, schedule: Q01DX009 (ip), vehicle: water
[9] = dose: 6.25 mg/kg/injection, schedule: Q01DX009 (ip), vehicle: water
[10] = dose: 12.5 mg/kg/injection, schedule: Q01DX009 (ip), vehicle: water
[11] = dose: 25.0 mg/kg/injection, schedule: Q01DX009 (ip), vehicle: water
[12] = dose: 12.5 mg/kg/injection, schedule: Q01DX009 (ip), vehicle: saline
[13] = dose: 25.0 mg/kg/injection, schedule: Q01DX009 (ip), vehicle: saline
[14] = dose: 50.0 mg/kg/injection, schedule: Q01DX009 (ip), vehicle: saline
[15] = dose: 100.0 mg/kg/injection, schedule: Q01DX009 (ip), vehicle: saline
[16] = dose: 200.0 mg/kg/injection, schedule: Q01DX009 (ip), vehicle: saline

Measured: T/C

CCc1cc(C(N)=S)ccn1
inactive: dose: 72.0 mg/kg/injection, schedule: Q01DX007 (ip), vehicle: Klucel (hydroxypropylcellulose) (HPC) 96 % of control | dose: 102.9 mg/kg/injection, schedule: Q01DX007 (ip), vehicle: Klucel (hydroxypropylcellulose) (HPC) 95 % of control | dose: 147.0 mg/kg/injection, schedule: Q01DX007 (ip), vehicle: Klucel (hydroxypropylcellulose) (HPC) 86 % of control | dose: 300.0 mg/kg/injection, schedule: Q01DX007 (ip), vehicle: Klucel (hydroxypropylcellulose) (HPC) 99 % of control

O=C(NCCCCCCNC(=O)N1CC1)N1CC1
inactive: dose: 0.3 mg/kg/injection, schedule: Q01DX009 (ip), vehicle: saline 104 % of control | dose: 0.6 mg/kg/injection, schedule: Q01DX009 (ip), vehicle: saline 119 % of control | dose: 1.2 mg/kg/injection, schedule: Q01DX009 (ip), vehicle: saline 115 % of control | dose: 2.4 mg/kg/injection, schedule: Q01DX009 (ip), vehicle: saline 120 % of control

Cc1ccc(S(=O)(=O)NC(=O)C2C(=O)CC3(CCCCC3)CC2=O)cc1
inactive: [1] 105 % of control | [2] 101 % of control

CCOC(=O)NC(N)=O
inactive: [3] 97 % of control | [4] 100 % of control | [5] 122 % of control | dose: 400.0 mg/kg/injection, schedule: Q01DX009 (ip), vehicle: saline with Tween-80 107 % of control

COc1ccc2ccccc2c1C1NC(=O)c2ccccc2N1 (stereo not given)
inactive: dose: 12.5 mg/kg/injection, schedule: Q01DX009 (ip), vehicle: Klucel (hydroxypropylcellulose) (HPC) 90 % of control | dose: 25.0 mg/kg/injection, schedule: Q01DX009 (ip), vehicle: Klucel (hydroxypropylcellulose) (HPC) 92 % of control | [1] 92 % of control | [2] 96 % of control | dose: 200.0 mg/kg/injection, schedule: Q01DX009 (ip), vehicle: Klucel (hydroxypropylcellulose) (HPC) 98 % of control | dose: 400.0 mg/kg/injection, schedule: Q01DX009 (ip), vehicle: Klucel (hydroxypropylcellulose) (HPC) 102 % of control

CC(=O)O[C@H]1C(=O)[C@@]2(C)[C@H]([C@H](OC(=O)c3ccccc3)[C@]3(O)C[C@H](OC(=O)[C@H](O)[C@@H](NC(=O)c4ccccc4)c4ccccc4)C(C)=C1C3(C)C)[C@]1(OC(C)=O)CO[C@@H]1C[C@@H]2O
inactive: dose: 25.9 mg/kg/injection, schedule: Q04DX003 (ip), vehicle: Klucel (hydroxypropylcellulose) (HPC) 93 % of control | dose: 43.2 mg/kg/injection, schedule: Q04DX003 (ip), vehicle: Klucel (hydroxypropylcellulose) (HPC) 86 % of control

O=[N+]([O-])c1ccc(Sc2ccncn2)c([N+](=O)[O-])c1
inactive: [6] 91 % of control | [7] 112 % of control | [3] 95 % of control | [4] 107 % of control

O=C1C(Cl)=C(Cl)C(=O)C2=C1C1c3ccccc3C2c2ccccc21
inactive: [6] 104 % of control | [7] 103 % of control | [3] 103 % of control

COc1ccc(-c2csc(=[N+]3CCCCC3)s2)cc1
inactive: dose: 1.56 mg/kg/injection, schedule: Q01DX009 (ip), vehicle: water 94 % of control | [8] 101 % of control | [9] 100 % of control | [10] 99 % of control | [11] 108 % of control

O=P1(NCCCl)OCCCN1CCCl (stereo not given)
active: [14] 163 % of control | [15] 305 % of control | dose: 190.0 mg/kg/injection, schedule: Q01DX001 (ip), vehicle: saline 283 % of control | dose: 289.0 mg/kg/injection, schedule: Q01DX001 (ip), vehicle: saline 283 % of control | dose: 431.0 mg/kg/injection, schedule: Q01DX001 (ip), vehicle: saline 212 % of control
inactive: [12] 114 % of control | [13] 112 % of control | dose: 108.0 mg/kg/injection, schedule: Q01DX001 (ip), vehicle: water 112 % of control | dose: 500.0 mg/kg/injection, schedule: Q01DX001 (ip), vehicle: water 91 % of control

CC(=O)OCc1ncccc1OC(C)=O
inactive: [13] 97 % of control | [14] 100 % of control | [15] 101 % of control | [16] 104 % of control

CCCCOCN(COCCCC)C(C)Cc1ccccc1 (stereo not given)
inactive: [6] 102 % of control | [7] 96 % of control | [3] 95 % of control | [4] 100 % of control | [5] 101 % of control

Nc1nnc[se]1
inactive: dose: 3.12 mg/kg/injection, schedule: Q01DX009 (ip), vehicle: saline with Tween-80 103 % of control | dose: 6.25 mg/kg/injection, schedule: Q01DX009 (ip), vehicle: saline with Tween-80 111 % of control | [7] 118 % of control

N=C(N)c1ccc(/C=C/c2ccc(C(=N)N)cc2O)cc1
inactive: [8] 96 % of control | [9] 101 % of control | [10] 101 % of control | [11] 111 % of control | dose: 50.0 mg/kg/injection, schedule: Q01DX009 (ip), vehicle: water 115 % of control

CC1CN1C(=O)NCCCCCCNC(=O)N1CC1C (stereo not given)
inactive: dose: 2.5 mg/kg/injection, schedule: Q01DX009 (ip), vehicle: saline + alcohol 111 % of control

CN(C)CC(=O)c1ccc(O)c(O)c1
inactive: [15] 99 % of control | [16] 91 % of control | dose: 400.0 mg/kg/injection, schedule: Q01DX009 (ip), vehicle: saline 90 % of control

Clc1ccc2c(Cl)ncnc2c1
inactive: [3] 107 % of control | [4] 118 % of control | [5] 111 % of control

CCN(CC)CCOC(=O)Cc1cccc2c(=O)cc(-c3ccccc3)oc12
inactive: [12] 109 % of control | [13] 105 % of control | [14] 105 % of control | [15] 101 % of control

Nc1nc2c(c(=O)[nH]1)NC(CCNc1ccc(C(=O)NC(CCC(=O)O)C(=O)O)cc1)CN2 (stereo not given)
inactive: [13] 111 % of control | [14] 103 % of control | [15] 117 % of control

C[C@@]12C(=O)OC(=O)[C@]1(C)[C@H]1CC[C@@H]2O1
inactive: dose: 0.06 mg/kg/injection, schedule: Q01DX009 (ip), vehicle: Klucel (hydroxypropylcellulose) (HPC) 104 % of control | dose: 0.12 mg/kg/injection, schedule: Q01DX009 (ip), vehicle: Klucel (hydroxypropylcellulose) (HPC) 108 % of control | dose: 0.25 mg/kg/injection, schedule: Q01DX009 (ip), vehicle: Klucel (hydroxypropylcellulose) (HPC) 95 % of control | dose: 0.5 mg/kg/injection, schedule: Q01DX009 (ip), vehicle: Klucel (hydroxypropylcellulose) (HPC) 108 % of control | dose: 1.0 mg/kg/injection, schedule: Q01DX009 (ip), vehicle: Klucel (hydroxypropylcellulose) (HPC) 97 % of control

CC1=C(/C=C/C(C)=C/C=C/C(C)=C/CO)C(C)(C)CCC1
inactive: dose: 4.0 mg/kg/injection, schedule: Q01DX005 (ip), vehicle: saline with Tween-80 95 % of control | dose: 8.0 mg/kg/injection, schedule: Q01DX005 (ip), vehicle: saline with Tween-80 95 % of control | dose: 16.0 mg/kg/injection, schedule: Q01DX005 (ip), vehicle: saline with Tween-80 95 % of control | dose: 32.0 mg/kg/injection, schedule: Q01DX005 (ip), vehicle: saline with Tween-80 102 % of control | dose: 64.0 mg/kg/injection, schedule: Q01DX005 (ip), vehicle: saline with Tween-80 102 % of control | dose: 128.0 mg/kg/injection, schedule: Q01DX005 (ip), vehicle: saline with Tween-80 98 % of control

CN(C)CCCNc1c2ccccc2nc2cccc([N+](=O)[O-])c12
inactive: dose: 44.8 micrograms/kg/injection, schedule: Q04DX003 (ip), vehicle: saline 92 % of control | dose: 124.0 micrograms/kg/injection, schedule: Q04DX003 (ip), vehicle: saline 92 % of control | dose: 346.0 micrograms/kg/injection, schedule: Q04DX003 (ip), vehicle: saline 86 % of control

CCCCCCCCCCCCCCCCCC1=NC(C)CC(C)(C)O1 (stereo not given)
inactive: [3] 106 % of control | [4] 103 % of control | [5] 98 % of control

C=CCCC(=O)CCCC(=O)O[C@@H]1[C@@H]2[C@H](CC1(C)C)[C@H](O)[C@@]13O[C@@H]1[C@H](O)[C@@]1(CO1)[C@@]23C
inactive: dose: 6.2 micrograms/kg/injection, schedule: Q01DX009 (ip), vehicle: Klucel (hydroxypropylcellulose) (HPC) 116 % of control | dose: 12.5 micrograms/kg/injection, schedule: Q01DX009 (ip), vehicle: Klucel (hydroxypropylcellulose) (HPC) 120 % of control | dose: 25.0 micrograms/kg/injection, schedule: Q01DX009 (ip), vehicle: Klucel (hydroxypropylcellulose) (HPC) 107 % of control | dose: 50.0 micrograms/kg/injection, schedule: Q01DX009 (ip), vehicle: Klucel (hydroxypropylcellulose) (HPC) 112 % of control
